The text below walks through data of patent publication US8871929B2, “Fused-imidazoyl compounds useful as antimicrobial agents” (Merck Sharp & Dohme Corp., priority 2010, dated 2014).

For the assay, the system named is Staphylococcus aureus ATCC29213. Kind of assay: Susceptibility testing (MIC determination), broth microdilution. It is filed as cell-based. The following applies: Mueller Hinton broth, 96-well plate, overnight incubation at 35° C., read-out: MIC Staph. aureus ATCC-29213. The procedure:
Compounds useful in the method of the invention were investigated for their utility as antimicrobial agents in the following assay. Susceptibility testing (MIC determinations) was performed using the standard broth microdilution methodology precisely as described in the Clinical Laboratory Standards Institute Document M7-A6; Methods for Dilution Antimicrobial Susceptibility Tests for Bacteria That Grow Aerobically; […] To perform the test, a series of 0.1 ml media in a 96-well plate is prepared with Mueller Hinton broth to which various concentrations of the test compound are added. The media are then inoculated with a standardized suspension of the test organism, Staphylococcus aureus ATCC29213. After overnight incubation at 35° C., the tests are examined and the minimal inhibitory concentration (MIC) is determined. MIC is defined as the lowest concentration of an antimicrobial agent that prevents visible growth of a microorganism in the broth microdilution susceptibility test

In brackets after ≈: the same amount, converted by molar mass.

Regarding `CCN1CCCc2cc(-c3nc4cnccn4c3NCC(=O)N3CCN(c4c(Cl)cncc4Cl)CC3)ccc21` [Compound 11], the MIC worked out at 0.5 µg/mL (≈ 0.884 µM).

Regarding `O=C(CNc1c(-c2ccc(N3CCOCC3)cc2)nc2ccc(F)cn12)N1CCN(c2c(Cl)cncc2Cl)CC1` [Compound 83], the MIC worked out at 0.125 µg/mL (≈ 0.214 µM).

`CN(C)c1ccc(-c2nc3cnccn3c2NCC(=O)N2CCN(c3c(Cl)cccc3Cl)CC2)cc1` [Compound 61]: the MIC amounted to 0.25 µg/mL (≈ 0.477 µM).

For the compound `Cc1ccccc1N1CCN(C(=O)CNc2c(-c3ccc(N4CCCC4)cc3)nc3ccccn23)CC1` [Compound 34], the MIC is 5 µg/mL (≈ 10.1 µM).

Turning to `CCN1CCc2cc(-c3nc4cnccn4c3NCC(=O)N3CCN(c4c(Cl)cncc4Cl)CC3)ccc21` [Compound 33], the MIC is 0.19 µg/mL (≈ 0.345 µM).

Turning to `Cc1cccc(N2CCN(C(=O)CNc3c(-c4ccc(N5CCCC5)cc4)nc4ccccn34)CC2)c1C` [Compound 29], the MIC was determined as 5 µg/mL (≈ 9.83 µM).

With `CN(C)c1ccc(-c2nc3ccccn3c2NCC(=O)N2CCN(c3ncccc3C#N)CC2)cc1` [Compound 55], the MIC was found to be 6 µg/mL (≈ 12.5 µM).
